Holding throughout (assay type): biochemical
Assay [1] addresses T1, Factor XIa (Homo sapiens, UniProt P03951). Description: Kinetic parameters of the peptide substrate with Factor XIa (substrate inhibition model). To be noted: substrate of FXIa. An excerpt:
(§1) A fluorescence intensity (FLINT) based assay was used to monitor inhibition of Factor XIa. The peptide substrate, 5Fam-KLTRAETV-K5Tamra (purchased from New England Peptide) was chosen based on the FXI sequence. Conversion of zymogen FXI to its activated form, FXIa, occurs by proteolytic cleavage by […] at two sites, Arg146 and Arg180. The custom peptide used in this assay was based on the Arg146 cleavage site of FXI. The peptide substrate was designed with a fluorophore-quencher pair, where the fluorescence is quenched until FXIa cleaves the 8-mer peptide after the Arg residue.

Assay [2] addresses T2, human plasma kallikrein (Homo sapiens, UniProt P03952). As to the kind of experiment: Kallikrein inhibition assay (FLINT) with quenched AMC peptide substrate. The note with it: 30 min preincubation; 50 μM Z-Gly-Pro-Arg-AMC substrate; 2 nM kallikrein; top compound concentration 1 μM. From the text:
Biological Example 2: Kallikrein Inhibition Assay Utilizing a Quenched AMC Peptide Substrate
(§2) A fluorescence intensity (FLINT) based assay was used to monitor inhibition of human plasma kallikrein. The peptide substrate, Z-Gly-Pro-Arg-AMC (Purchased from Bachem; Catalog #I-1150) was chosen based on its relatively low KM for kallikrein which enables running the assay at lower substrate concentrations to control background fluorescence.
The Kallikrein FLINT assay was used with the following Z-Gly-Pro-Arg-AMC assay buffer: 50 mM Tris, pH 7.5, 100 mM NaCl, 5 mM CaCl2, 0.1 mg/mL BSA, 0.03% CHAPS. Assay buffer was prepared by mixing all ingredients fresh. 2× Z-Gly-Pro-Arg-AMC peptide substrate was prepared by diluting 10 mM stock into 1× assay buffer for a 100 μM working concentration (50 μM final concentration). […]
Test compound(s) were run in an 11-point, 3-fold serial dilution with a final top compound concentration of 1 μM. […] The assay was run with kinetic (KIN) reads at 5 min intervals over 30 minutes. […]
(§3) Percent inhibition (IC50) curves were generated per compound tested, and data was analyzed using a 4-parameter logistic fit using GeneData Screener. The relative fluorescence unit (RFU) values were normalized to percent inhibition using the following equation: % inhibition=((HC−LC)−(compound−LC)/(HC−LC))*100 […]

Assay [3] addresses T1, Factor XIa. As to the kind of experiment: Factor XIa inhibition assay (FLINT) with fluorophore-quencher pair peptide substrate.
From the text: Biological Example 1: Factor XIa Inhibition Assay Utilizing a Fluorophore-Quencher Pair Peptide Substrate
as §1
The Factor XIa FLINT assay was used with the following 5Fam-KLTRAETV-K5Tamra assay buffer: 50 mM Tris, pH 7.5, 100 mM NaCl, 5 mM CaCl2, 0.1 mg/mL BSA, 0.03% CHAPS. […]
Test compound(s) were run in an 11-point, 3-fold serial dilution with a final top compound concentration of 100 nM. […] The assay was run with kinetic (KIN) reads at 5 min intervals over 30 minutes. […]
as §3

Assay [4] addresses T2, human plasma kallikrein. As to the kind of experiment: Kinetic parameters of the peptide substrate with kallikrein (Michaelis-Menten fit).
From the text: as §2

We go through 3 molecules from patent US11958856B2, “Substituted 1,2,3,8,9,9a-hexahydro-5H-pyrrolo[1,2-a]azepin-5-ones as factor XIa inhibitors” (Janssen Pharmaceutica NV, priority 2021, dated 2024).

Peptide text beside a SMILES is read from it. * marks the point of attachment. 5FAM = O=C1OC2(c3ccc(O)cc3Oc3cc(O)ccc32)c2ccc(C(=O)*)cc21; AMC = Cc1cc(=O)oc2cc(N*)ccc12; Cbz = O=C(OCc1ccccc1)*

T1 sequence (P03951 388-625 limits assumed): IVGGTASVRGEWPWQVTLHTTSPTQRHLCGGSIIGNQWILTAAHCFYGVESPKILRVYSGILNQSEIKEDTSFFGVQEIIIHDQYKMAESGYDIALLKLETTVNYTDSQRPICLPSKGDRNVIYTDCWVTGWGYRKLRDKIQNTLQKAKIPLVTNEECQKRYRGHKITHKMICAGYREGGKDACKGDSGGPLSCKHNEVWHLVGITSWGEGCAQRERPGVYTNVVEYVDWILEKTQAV
T1 sequence (P03951 19-387 partner limits assumed): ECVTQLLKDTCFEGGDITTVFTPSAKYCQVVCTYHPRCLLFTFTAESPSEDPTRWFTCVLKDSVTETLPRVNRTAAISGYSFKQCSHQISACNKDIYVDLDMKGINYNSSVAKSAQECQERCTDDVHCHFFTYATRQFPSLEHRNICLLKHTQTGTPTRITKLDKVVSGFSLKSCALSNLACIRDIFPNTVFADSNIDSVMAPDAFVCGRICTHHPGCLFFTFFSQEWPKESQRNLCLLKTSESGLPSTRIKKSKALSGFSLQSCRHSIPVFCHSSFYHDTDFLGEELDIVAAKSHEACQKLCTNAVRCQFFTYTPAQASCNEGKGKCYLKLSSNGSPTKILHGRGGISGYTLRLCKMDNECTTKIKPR
T2 sequence (P03952 391-638 limits assumed): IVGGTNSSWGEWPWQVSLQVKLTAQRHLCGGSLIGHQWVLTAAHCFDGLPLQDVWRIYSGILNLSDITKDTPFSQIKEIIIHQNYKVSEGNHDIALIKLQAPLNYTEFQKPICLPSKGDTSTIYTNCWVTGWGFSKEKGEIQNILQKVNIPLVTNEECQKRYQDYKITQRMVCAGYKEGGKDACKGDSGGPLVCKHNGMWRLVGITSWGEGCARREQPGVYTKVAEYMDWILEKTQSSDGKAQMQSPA
T2 sequence (P03952 20-390 partner limits assumed): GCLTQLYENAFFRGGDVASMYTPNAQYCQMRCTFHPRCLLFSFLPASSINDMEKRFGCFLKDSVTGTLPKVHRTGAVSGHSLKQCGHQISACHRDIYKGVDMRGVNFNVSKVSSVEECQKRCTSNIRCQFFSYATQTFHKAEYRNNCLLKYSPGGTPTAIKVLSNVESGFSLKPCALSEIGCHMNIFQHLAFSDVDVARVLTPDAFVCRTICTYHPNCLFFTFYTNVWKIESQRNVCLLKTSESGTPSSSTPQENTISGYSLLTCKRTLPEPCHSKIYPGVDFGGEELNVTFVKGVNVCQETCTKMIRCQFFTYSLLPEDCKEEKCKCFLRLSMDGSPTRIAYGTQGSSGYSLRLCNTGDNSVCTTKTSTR

A word on the Km: it is the substrate concentration at which the rate is half of its maximum. For orientation: kcat means the number of substrate molecules converted per active site and unit of time at saturation. On to “5Fam-KLTRAETV-K5Tamra (5FAM-KLTRAETV-{K(5-TAMRA)}) [fluorophore-quencher pair peptide substrate based on the Arg146 cleavage site of FXI, purchased from New England Peptide]”, for which, in the assay with Factor XIa [1], the Ki is 61600 nM, the Km came to 12.4 µM and the kcat is 0.86 s⁻¹.
The term IC50 denotes the concentration that inhibits the measured activity by half. A high value points to weaker potency. On to `NC(=O)c1ccc(NC(=O)[C@@H]2CC[C@H]3CCC(c4c(-n5cnnn5)ccc(Cl)c4F)=CC(=O)N32)cc1F` [ID No. 20, (3S,9aR)-N-(4-carbamoyl-3-fluorophenyl)-7-(3-chloro-2-fluoro-6-(1H-tetrazol-1-yl)phenyl)-5-oxo-2,3,5,8,9,9a-hexahydro-1H-pyrrolo[1,2-a]azepine-3-carboxamide], for which the concentration for half-maximal inhibition (IC50) at human plasma kallikrein [2] was 802 nM; on Factor XIa [3] (30 min preincubation, 15 μM 5Fam-KLTRAETV-K5Tamra substrate, top compound concentration 100 nM, kinetic read), over 100 nM. This molecule showed a Ki on Factor XIa [3] (same assay as Factor XIa IC50) of over 50 nM.
As to `Cc1cc(=O)oc2cc(NC(=O)[C@H](CCCNC(=N)N)NC(=O)[C@@H]3CCCN3C(=O)CNC(=O)OCc3ccccc3)ccc12` [Z-Gly-Pro-Arg-AMC] (Cbz-Gly-Pro-Arg-{AMC}), the turnover number (kcat) at human plasma kallikrein [4] was found to be 0.76 s⁻¹.
